Assay [1] deals with Experimental Autoimmune Encephalomyelitis (EAE). As to the kind of experiment: EAE studies (Experimental Autoimmune Encephalomyelitis). The format is in vivo, mice of the C57BL/6 (B6) strain. The note with it: orally twice a day from day 0; for EAE onset and clinical score: effect starting at 3, 10 or 30 mg/kg; for EAE onset: 30 mg/kg.
The target in assay [2] is T1, Human RORγ Ligand Binding Domain (RORγ-LBD) (Homo sapiens, UniProt P51449).
T1 construct: made in house; host or cells: E. coli BL21(DE3), modified pET21a
T1 sequence (P51449 263-518): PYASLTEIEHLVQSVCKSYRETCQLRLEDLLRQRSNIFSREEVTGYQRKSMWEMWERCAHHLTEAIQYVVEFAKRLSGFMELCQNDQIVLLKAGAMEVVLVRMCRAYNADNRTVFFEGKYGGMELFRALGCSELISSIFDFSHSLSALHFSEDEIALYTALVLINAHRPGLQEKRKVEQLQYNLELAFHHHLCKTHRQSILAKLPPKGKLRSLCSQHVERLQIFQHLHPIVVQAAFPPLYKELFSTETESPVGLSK
As to the kind of experiment: Dual Fluorescence Energy Transfer (FRET) assay, RORγ-LBD / SRC1(2) co-activator peptide interaction. The assay is classed as biochemical. The note with it: mean of multiple test results if tested more than once; read-out: pIC50 in the dual FRET assay (converted). The source says:
This assay is based on the knowledge that nuclear receptors interact with cofactors (transcription factors) in a ligand dependent manner. RORγ is a typical nuclear receptor in that it has an AF2 domain in the ligand binding domain (LBD) which interacts with co-activators.
The assay measures ligand-mediated interaction of the co-activator peptide with the purified bacterial-expressed RORγ ligand binding domain (RORγ-LBD) to indirectly assess ligand binding. RORγ has a basal level of interaction with the co-activator SRC1(2) in the absence of ligand, thus it is possible to find ligands that inhibit or enhance the RORγ/SRC1(2) interaction.
Human RORγ Ligand Binding Domain (RORγ-LBD) was expressed in E.coli strain BL21(DE3) as an amino-terminal polyhistidine tagged fusion protein. DNA encoding this recombinant protein was sub-cloned into a modified pET21a expression vector (Novagen).
Approximately 50 g E. coli cell pellet was resuspended in 300 mL of lysis buffer (30 mM imidazole pH 7.0 and 150 mM NaCl). Cells were lysed by sonication and cell debris was removed by centrifugation for 30 minutes at 20,000 g at 4° C. […] The clarified lysate was loaded onto a column (XK-26) packed with ProBond Nickel Chelating resin (Invitrogen), pre-equilibrated with 30 mM imidazole pH 7.0 and 150 mM NaCl. After washing to baseline absorbance with the equilibration buffer, the column was developed with a gradient from 30 to 500 mM imidazole pH 7.0. Column fractions containing the RORγ-LBD protein were pooled and concentrated to a volume of 5 mls. The concentrated protein was loaded onto a Superdex 200 column pre-equilibrated with 20 mM Tris-CI pH 7.2 and 200 mM NaCl. The fractions containing the desired RORγ-LBD protein were pooled together.
Purified RORγ-LBD was buffer exchanged by exhaustive dialysis [3 changes of at least 20 volumes (>8000x)] against PBS [100mM NaPhosphate, pH 8 and 150mM NaC1]. […] The modified protein was distributed into aliquots, frozen on dry ice and stored at −80° C. The biotinylated RORγ-LBD was subjected to mass spectrometric analysis to reveal the extent of modification by the biotinylation reagent.
An appropriate amount of Europium labeled Streptavidin was then added to the biotinylated SRC1(2) solution in a tube to give a final concentration of 10 nM. The tube was inverted gently and incubated for 15 minutes at room temperature. Twenty-fold excess biotin from the 10 mM stock solution was added and the tube was inverted gently and incubated for 10 minutes at room temperature.
Preparation of APC labeled RORγ-LBD: biotinylated RORγ-LBD solution was prepared by adding an appropriate amount of biotinylated RORγ-LBD from the stock solution to a buffer containing 10 mM of freshly added DTT from solid to give a final concentration of 40 nM. An appropriate amount of APC labeled Streptavidin was then added to the biotinylated RORγ-LBD solution in a tube to give a final concentration of 20 nM. The tube was inverted gently and incubated for 15 minutes at room temperature. Twenty-fold excess biotin from the 10 mM stock solution was then added and the tube was inverted gently and incubated for 10 minutes at room temperature.
The reaction mixtures were incubated for 5 minutes. […] The plates were incubated for lhr and then read on ViewLux in Lance mode for EU/APC.

For a further assay, the system named is Mouse CD4+ cells. As to the kind of experiment: Th17 cell differentiation assay (IL-17 ELISA). The format is cell-based. The note with it: 72 h, mean pIC50, IL-17 ELISA, 3 days culture, detection limit of the assay 5, read-out: pIC50 in the Th17 cell differentiation assay (converted). The protocol: Mouse CD4+cells were purified using the CD4+ T Cell Isolation II Kit according to manufacturer's instructions (Miltenyi Biotec). 96 well plates were pre-coated with anti-mCD3 antibody. Un-coated wells were used as controls. CD4+ Cells were resuspended in RPMI 1640 complete medium and were added to the 96-well plates. Cytokine cocktail and the compound were then added to the wells. Antibodies and cytokines (all from R&D Systems) used in the assay were selected from the following: anti-mCD3; anti-mCD28; anti-mIFNγ; anti-mIL4; mIL-6; mIL-23; mIL-1β; hTGF-β1. The culture was incubated at 37° C. for 3 days and supernatants were collected for ELISA. The IL-17 ELISAs were performed according to manufacturer's instructions (R&D Systems). The results were analyzed using Prism software with non-linear regression to determine pIC50.

Structures can show the parent of a compound that is named as a salt. Where only a bound is given, the exact number is not on record here.

Consider `Cc1ncc(C(=O)Nc2cc(F)cc(CN3CCN(C(=O)C4CCCC4)[C@@H](C)C3)c2C)cn1` [Example 20, (S)-N-(3-((4-(cyclopentanecarbonyl)-3-methylpiperazin-1-yl)methyl)-5-fluoro-2-methylphenyl)-2-methylpyrimidine-5-carboxamide], for which, in assay [1], the “EAE onset and clinical score” value was “delay EAE onset and lower clinical score”. Also, the IC50 was ~100 nM in assay [2] and ~31.6 nM in the assay on Mouse CD4+ cells.

Turning to `Cc1ccc(C(=O)Nc2cc(Cl)cc(CN3CCN(C(=O)C4CCCC4)[C@@H](C)C3)c2C)cn1` [Example 62, (S)-N-(5-chloro-3-((4-(cyclopentanecarbonyl)-3-methylpiperazin-1-yl)methyl)-2-methylphenyl)-6-methylnicotinamide], in assay [1], the EAE onset result was “delay EAE onset”.

For the compound `Cc1c(NC(=O)c2ccc[nH]c2=O)ccc(F)c1CN1CCN(C(=O)C2CCCC2)[C@@H](C)C1` [Example 129, (S)-N-(3-((4-(cyclopentanecarbonyl)-3-methylpiperazin-1-yl)methyl)-4-fluoro-2-methylphenyl)-2-oxo-1,2-dihydropyridine-3-carboxamide, trifluoroacetic acid salt], the IC50 with Mouse CD4+ cells is > 10000 nM.

`Cc1c(CN2CCN(C(=O)C3CC(F)(F)C3)[C@@H](C)C2)cc(F)cc1NC(=O)c1cccc(C#N)c1` [Example 175, (S)-3-cyano-N-(3-((4-(3,3-difluorocyclobutanecarbonyl)-3-methylpiperazin-1-yl)methyl)-5-fluoro-2-methylphenyl)benzamide, trifluoroacetic acid salt]: in assay [1], the “EAE onset and clinical score” value was “delay EAE onset and lower clinical score”.

Regarding `Cc1ccc(C(=O)Nc2cc(Cl)cc(CN3CCN(C(=O)CC4CC4)[C@@H](C)C3)c2C)cn1` [Example 184, (S)-N-(5-chloro-3-((4-(2-cyclopropylacetyl)-3-methylpiperazin-1-yl)methyl)-2-methylphenyl)-6-methylnicotinamide], the “EAE onset and clinical score” value in assay [1] was “delay EAE onset and lower clinical score”. Also, the IC50 was ~200 nM in assay [2] and ~83.2 nM in the assay with Mouse CD4+ cells.

Turning to `Cc1ccc(C(=O)Nc2cc(F)cc(CN3CCN(C(=O)[C@H]4C[C@@H](C)C4)[C@@H](C)C3)c2C)cn1` [Example 185, N-(5-fluoro-2-methyl-3-(((S)-3-methyl-4-((cis)-3-methylcyclobutanecarbonyl)piperazin-1-yl)methyl)phenyl)-6-methylnicotinamide], the IC50 was ~79.4 nM in assay [2] and ~20.9 nM in the assay on Mouse CD4+ cells.

As for `Cc1ccc(C(=O)Nc2cc(F)cc(CN3CCN(C(=O)[C@H]4C[C@H](C)C4)[C@@H](C)C3)c2C)cn1` [Example 186, N-(5-fluoro-2-methyl-3-(((S)-3-methyl-4-((trans)-3-methylcyclobutanecarbonyl)piperazin-1-yl)methyl)phenyl)-6-methylnicotinamide], the IC50 was ~79.4 nM in assay [2] and ~37.2 nM with Mouse CD4+ cells.

As to `Cc1cc(C(=O)Nc2cc(Cl)cc(CN3CCN(C(=O)C4CCCC4)[C@@H](C)C3)c2C)ccn1` [Example 187, (S)-N-(5-chloro-3-((4-(cyclopentanecarbonyl)-3-methylpiperazin-1-yl)methyl)-2-methylphenyl)-2-methylisonicotinamide], the IC50 is ~126 nM in assay [2] and ~3.16 nM with Mouse CD4+ cells.

With `Cc1ccc(C(=O)Nc2cc(Cl)cc(CN3CCN(C(=O)[C@H]4C[C@H](C)C4)[C@@H](C)C3)c2C)cn1` [Example 188, N-(5-chloro-2-methyl-3-(((S)-3-methyl-4-((trans)-3-methylcyclobutanecarbonyl)piperazin-1-yl)methyl)phenyl)-6-methylnicotinamide], the IC50 in assay [2] was ~63.1 nM; in the assay on Mouse CD4+ cells, ~8.71 nM.

Take `Cc1ccc(C(=O)Nc2cc(Cl)cc(CN3CCN(C(=O)[C@H]4C[C@@H](C)C4)[C@@H](C)C3)c2C)cn1` [Example 189, N-(5-chloro-2-methyl-3-(((S)-3-methyl-4-((cis)-3-methylcyclobutanecarbonyl)piperazin-1-yl)methyl)phenyl)-6-methylnicotinamide]: the IC50 in assay [2] was ~50.1 nM; in the assay with Mouse CD4+ cells, ~5.13 nM.

On to `Cc1ncc(C(=O)Nc2cc(Cl)cc(CN3CCN(C(=O)[C@H]4C[C@@H](C)C4)[C@@H](C)C3)c2C)cn1` [Example 190, N-(5-chloro-2-methyl-3-(((S)-3-methyl-4-((cis)-3-methylcyclobutanecarbonyl)piperazin-1-yl)methyl)phenyl)-2-methylpyrimidine-5-carboxamide, trifluoroacetic acid salt], for which, in assay [1], the EAE onset result is recorded as “delay EAE onset”. Besides, the IC50 in assay [2] is ~158 nM; with Mouse CD4+ cells, ~12.9 nM.

In the case of `Cc1ncc(C(=O)Nc2cc(Cl)cc(CN3CCN(C(=O)[C@H]4C[C@H](C)C4)[C@@H](C)C3)c2C)cn1` [Example 191, N-(5-chloro-2-methyl-3-(((S)-3-methyl-4-((trans)-3-methylcyclobutanecarbonyl)piperazin-1-yl)methyl)phenyl)-2-methylpyrimidine-5-carboxamide, trifluoroacetic acid salt], in assay [1], the EAE onset entry was “delay EAE onset”. The IC50 is ~251 nM in assay [2] and ~26.3 nM in the assay on Mouse CD4+ cells.

As to `Cc1ncc(C(=O)Nc2cc(Cl)cc(CN3CCN(C(=O)C4CCCC4)[C@@H](C)C3)c2C)cn1` [Example 192, (S)-N-(5-chloro-3-((4-(cyclopentanecarbonyl)-3-methylpiperazin-1-yl)methyl)-2-methylphenyl)-2-methylpyrimidine-5-carboxamide], the “EAE onset and clinical score” value in assay [1] is “delay EAE onset and lower clinical score”. In addition, the IC50 in the assay on Mouse CD4+ cells was ~7.94 nM.

Source of the values: patent publication US10005731B2, “Modulators of the retinoid-related orphan receptor gamma (ROR-gamma) for use in the treatment of autoimmune and inflammatory diseases” (Glaxo Group Limited, priority 2012, dated 2018).
